Measured values as given in patent US5700776A, “Medicaments comprising glicentin as active ingredient” (Nisshin Flour Milling Co., Ltd., priority 1992, dated 1997).

Key:
arginine loaded dogs = experiment: Infusion of glicentin and glucagon into the pancreatic artery of arginine loaded dogs; plasma hormones and blood glucose; type: in vivo, dog; details: glicentin 100 pmol or 400 pmol infused into pancreatic artery for 10 minutes
Experimental: Healthy mongrel dogs weighing 13 to 17 kg were subjected to the test after an overnight fast (A. Ohneda et al., Horm. Metab. Res., 9, 447-452 (1977)).
The animals were anesthetized with sodium pentobarbital (Nembutal®) and their abdomens were opened. […] After the operation was completed, saline solution containing 0.5% arginine was infused into the pancreatic artery at a constant rate of 2 ml/min through the cannula using an infusion pump. […] 4 ml portions of blood samples for hormone assay were collected at various intervals into a glass tube containing 1000 KIU aprotinine and 10 mg EDTA.
The plasma insulin was measured in accordance with a known method mentioned in C.
The blood glucose was measured for blood drawn from the femoral artery by the glucose oxidase method using a test kit for the determination of blood glucose (available from Wako Pure Chemical Industries, Japan under the trade name of "Glucose B-Test Wako").

male MALB/c mice = experiment: Intraperitoneal administration to mice, observation of appearance; type: in vivo; details: 10 mg/kg intraperitoneally, male MALB/c mice (6 weeks age)

Substance: human glicentin (natural type): peptide of 69 amino acid residues, SEQ ID NO:2, produced by genetic engineering in E. coli
- insulin secretion (plasma insulin, IRI) (arginine loaded dogs; anesthetized dogs under 0.5% arginine infusion): stimulates insulin secretion
- glucagon level (IRG(G 21)) (arginine loaded dogs; antiserum G 21): not increased
- blood glucose levels (arginine loaded dogs; blood from femoral artery, glucose oxidase method): no change in blood glucose levels
- change in appearance (male MALB/c mice): no change in appearance
